Experimental data reported in patent publication US4577020A, “Aminoalkyl and aminoalkenyl triazoles as anti-psychotic agents” (The Upjohn Company, priority 1983, dated 1986).

How the values were obtained:
[1] = molecular target: T1, ^3 H-spiroperidol binding (Mus musculus, UniProt P61168); assay: In vivo spiroperidol binding assay
T1 construct: from tissue; host or cells: brain of ICR mice: striata, septum, most of the olfactory tubercles, small part of ventral cortex (in vivo labelling)
Procedure: D. In vivo spiroperidol Binding Assay
ICR strain mice, weighing about 20 gm, are given the test drugs or vehicle, i.p. or s.c., in 0.10 ml. Drug solutions are in saline, 0.1M citric acid, or 33% propylene glycol. After 1 hour, mice are given 66 micro-Curies (μCi)/kg of ^3 H-spiroperidol (specific activity […]) i.v. in 0.10 ml of saline. Four to 6 mice are given each test drug, and 4 of those which are successfully i.v. injected with the label are used for the rest of the experiment. At 3 hours (2 hours after the ^3 H-spiroperidol injection), the mice are sacrificed and the brains rapidly dissected. A section of brain tissue including the striata, septum, most of the olfactory tuberoles, and a small associated portion of the ventral edge of the cortex, is removed to dry ice. The tissues are weighed (usually 60-70 mg) and then dissolved in 1.0 ml of Protosol (New England Nuclear) overnight at about 40° C. The solutions are then neutralized with 80 μl of 6N HCl or 200 μl of 2.4N HCl, 15 ml of ACS counting solution (Amersham) is added, and the samples are counted by liquid scintillation spectroscopy. The amount of bound ^3 H-spiroperiodol, in cpm/mg tissue, is calculated for each test group and compared to the control group using the two-tailed Student's t test.
Of these tests, the in vivo spiroperidol binding assay is the most important indicator of antipsychotic activity. […]

[2] = standard laboratory test which indicates analgesic activity
Source text: However, the preferred use of the compounds of this invention is as anti-psychotic agents.

T1 sequence (P61168 whole entry): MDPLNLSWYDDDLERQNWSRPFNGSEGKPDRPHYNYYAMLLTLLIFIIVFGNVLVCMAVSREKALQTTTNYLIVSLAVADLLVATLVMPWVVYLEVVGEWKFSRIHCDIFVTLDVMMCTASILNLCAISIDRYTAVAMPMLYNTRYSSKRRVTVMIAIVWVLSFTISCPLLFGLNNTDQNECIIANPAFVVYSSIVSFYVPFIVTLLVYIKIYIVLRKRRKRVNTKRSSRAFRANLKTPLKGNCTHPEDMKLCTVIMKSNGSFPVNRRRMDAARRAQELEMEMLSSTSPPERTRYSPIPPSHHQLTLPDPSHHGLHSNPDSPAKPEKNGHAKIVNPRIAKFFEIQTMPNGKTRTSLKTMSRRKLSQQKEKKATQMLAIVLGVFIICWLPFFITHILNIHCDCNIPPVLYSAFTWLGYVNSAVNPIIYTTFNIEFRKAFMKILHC

effectiveness in the in vivo spiroperidol binding assay (in words) [1] | SMILES | analgesic activity (in words) [2]
most effective | Cc1nnc(/C=C/CN2CCN(c3ccccc3)CC2)n1-c1ccccc1 [Example 3, (E)-1-[3-(5-methyl-4-phenyl-4H-1,2,4-triazol-3-yl)-2-propenyl]-4-phenyl-piperazine] | 
most effective | CN(CCCc1nncn1-c1ccccc1)CCc1ccccc1 [N-methyl-4-phenyl-N-(2-phenylethyl)-4H-1,2,4-triazole-3-propanamine] | 
 | Cc1nnc(C(C)(O)CCN(C)CCc2ccccc2)n1-c1ccccc1 (stereo not drawn) [Example 2] | effective
